# Laboratory results from US8709420B2 (GlaxoSmithKline Intellectual Property Limited, priority 2010, dated 2014).
# Like-named read-outs stand apart in the source and are kept apart here.
# Key:
# NB12 xenograft = assay: NB12 TIC xenograft model; format: in vivo, NOD/SCID mice; conditions: for tumor growth compared to control: daily oral gavage, TP 1.0 mg/Kg, PZ 150 mg/Kg, TP+PZ both
# Method: (§1) 1×10^6 SK-N-BE(2) cells or 30,000 NB12 cells were implanted subcutaneously into the inguinal fat pad of each of non-obese diabetic/severe combined immune deficient (NOD/SCID) mice. […] The criteria for end point were tumor sizes exceeding 2.0 cms in diameter or animals showing signs of morbidity. The tumor sizes were measured on a daily basis until the end point or sacrifice. The long (D) and short diameters (d) were measured with calipers. Tumor volume (cm^3) was calculated as V=0.5×D×d^2. When end point was reached, the animals were sacrificed by cervical dislocation. Tumors were excised and were fixed in 10% formalin solution.
# SK-N-BE(2) xenograft = assay: SK-N-BE(2) neuroblastoma xenograft model; format: in vivo, NOD/SCID mice; conditions: for survival compared to control: daily oral gavage 56 days, TP 1.0 mg/Kg topotecan, PZ 150 mg/Kg pazopanib, TP+PZ both
# Method: as §1
# In the group of animals implanted with SK-N-BE(2) cells palpable tumors started appearing approximately two weeks after cell implantation and took an additional week to reach 0.5 cm in diameter, after which the treatment was started. The effect of treatment was assessed by measuring regression of tumors and by survival times. Drugs were administered daily over a period of 56 days, and the animals belonging to the TP+PZ group were also retreated from the 103rd day to evaluate the impact of resuming treatment on reversing drug resistance. Retreatment was continued until the 125th day, after which the mice were sacrificed.
# [1] = Pharmacokinetics of topotecan and pazopanib in non-tumor bearing animals; format: in vivo, mice
# Method: Non-tumor bearing animals were randomized into four groups (n=3): Control, PZ, TP and TP+PZ. The doses of the drugs were the same as for the inguinal xenograft and metastatic models described above.
# After single drug administration, the saphenous vein blood samples (30 μl) were collected in heparinized microcentrifuge tubes at 30 min, 1 h, 2 h, 4 h, 8 h, 12 h, 18 h and 24 h as per the Lab Animal Services protocol. Plasma was immediately isolated after blood collection by centrifugation. For the topotecan assay, 10 μl plasma was immediately precipitated with 20 μl methanol and centrifuged. The supernatant and rest of the plasma were stored at […] until analysis.
# 30 μl of supernatant was injected into the HPLC system, which consisted of Phenomenox C18 (Luna; 150×4.6 mm; particle size 5 microns) column, UV detector (267 nm). The mobile phase was 50:50 mixture of 10 mM potassium phosphate and methanol, with flow rate 1.0 ml/min. The calibration standards were 5, 10, 50, 100 and 200 μg/ml.
# Assay of topotecan: Prior to analysis, the previously prepared 20 μl methanolic extract was mixed with 50 μl of internal standard solution (5 ng/ml d6 topotecan dissolved 1% formic acid in acetonitrile). The mixture was then centrifuged and the supernatant was transferred to auto-sampler vials.
# The LC/MS system consisted of an HPLC (Agilent Infinity 1290), Column (Kinetex HILIC, 2.6u, 100A, 50×4.6 mm) and a mass spectrometer (Sciex 5500-QTrap). The analytes were eluted by gradient flow. Mobile phase A was water:actonitrile (10:90) and mobile phase B was 10 mM ammonium acetate (pH 3.2). The mobile phase ratio was 5% A for 0-2 min, 20% A for 4-6 min and 5% A for 8-10 min at a flow rate 0.5 ml/min. The samples were analyzed by positive ion electrospray ionization technique in multiple reaction monitoring modes. The following mass transitions were monitored: 422.2 to 377 m/z, (topotecan M+H) and 428.2 to 377 m/z (topotecan d6 M+H). The calibration standard range was 0.5 ng/ml to 10 ng/ml.
# Rh30 xenograft = assay: RH30 rhabdomyosarcoma mouse xenograft model; conditions: for tumor growth rate: daily oral up to 56 days, pazopanib 150 mg/Kg, LDM topotecan 1.0 mg/kg, combination both
# [2] = system: KHOS osteosarcoma cell line; format: cell-based
# Method: (§2) Materials: The cells were cultured at 37° C. in 5% CO2 in a-MEM (Multicell; Wisent, Inc., St. Bruno, Quebec, Canada) with 10% fetal bovine serum (FBS; Life Technologies, Grand Island, N.Y.) and 1% antibiotic mixture, containing 10000 IU penicillin and 10000 μg/ml streptomycin (Multicell; Wisent, Inc., St. Bruno, Quebec, Canada). Trypsin-EDTA, containing 0.05% trypsin and 0.53 mM EDTA was also purchased from Multicell; Wisent, Inc., St. Bruno, Quebec, Canada.
# (§3) Procedure: A total of 20,000 cells were plated in each well of 48 well-plates and incubated at 37° C. in 5% CO2. After 48 h, the cells were treated with various concentrations of drugs. After 72 h of treatment, the cell viability was determined by alamar blue assay.
# [3] = system: Rh4 rhabdomyosarcoma cell line; format: cell-based
# Method: as §2, §3
# [4] = system: Rh30 rhabdomyosarcoma cell line; format: cell-based
# Method: as §2, §3
# [5] = system: RD rhabdomyosarcoma cell line; format: cell-based
# Method: as §2, §3
# [6] = system: SH-SY5Y neuroblastoma cell line; assay: In-vitro cytotoxicity, Alamar Blue cell viability; format: cell-based; conditions: 72 h
# Text: (§4) SK-N-BE(2) (MYCN amplified) and SH-SY5Y (non-MYCN amplified neuroblastoma cell lines) were obtained from American Type Culture Collection (ATCC) (Manassas, Va.); BE(2)-c sub-clone of SK-N-BE(2) was obtained from Dr. Michelle Haber (Children's Cancer Institute for Medical Research, Lowry Cancer Research Centre, Randwick, Australia); Human Umbilical Vein Endothelial Cells (HUVECs) were obtained from Dr. Herman Yeger (The Hospital for Sick Children, Toronto, Ontario, Canada) and Tumor Initiating (TIC) cell lines NB12 and NB88, were obtained from Dr. David Kaplan (The Hospital for Sick Children, Toronto, Ontario, Canada). TICs NB12 and NB88 were isolated from the bone marrow metastases of relapsed high-risk neuroblastoma patients. Neuroblastoma cell lines SK-N-BE(2) and SH-SY5Y were grown in alpha-MEM containing 10% fetal bovine serum and 1% antibiotic mixture in humidified atmosphere at 37° C. with 5% CO2. NB12 and NB 88 were cultured as described previously.
# (§5) Cell viability was determined by Alamar Blue assay. Alamar blue (10% of total volume was added to each well three hours prior to fluorometric detection). Fluorometric detection was performed using the SPECTRAmax gemini Spectrophotometer at excitation wavelength of 540 nm and emission wavelength of 590 nm.
# [7] = system: SK-N-BE(2) neuroblastoma cell line; assay: In-vitro cytotoxicity, Alamar Blue cell viability; format: cell-based; conditions: for IC50: Homo sapiens, SKNBE2, 72 h
# Text: as §4, §5
# [8] = system: BE(2)-c experimental metastases; assay: BE(2)-c metastatic tumor model; format: in vivo, NOD/SCID mice
# Method: 1×10^6 BE(2)-c cells were injected into lateral tail veins of NOD/SCID mice to generate ‘experimental’ metastases. […] The treatment was continued until death or end point.
# In the metastatic model, the animals' organs (liver, kidney, adrenal, and femur) were removed after the death/sacrifice of animals, and were fixed in 10% formalin and paraffin-embedded. These paraffin-embedded sections were then stained with hematoxylin and eosin and microscopically examined.
smiles,measurement,setting,value
"Cc1ccc(Nc2nccc(N(C)c3ccc4c(C)n(C)nc4c3)n2)cc1S(N)(=O)=O [pazopanib, 5-[[4-[(2,3-dimethyl-2H-indazol-6-yl)methylamino]-2-pyrimidinyl]amino]-2-methylbenzenesulfonamide]",tumor growth compared to control,NB12 xenograft,No significant difference
same,survival compared to control,SK-N-BE(2) xenograft,significantly enhanced survival
same,time optimal plasma concentration of pazopanib was maintained,[1]; PZ group,at least 18 h
same,time to peak plasma concentration of pazopanib,"[1]; PZ group, single oral 150 mg/Kg pazopanib",2 h
same,time optimal plasma concentration of pazopanib was maintained,[1]; TP+PZ group,at least 18 h
same,time to peak plasma concentration of pazopanib,"[1]; TP+PZ group, single oral 150 mg/Kg pazopanib+1.0 mg/Kg topotecan",2 h
same,tumor growth rate,Rh30 xenograft,delayed the tumor growth rate
same,cell viability / cytotoxicity,[2],did not show cytotoxicity
same,cell viability / cytotoxicity,[3],did not show cytotoxicity
same,cell viability / cytotoxicity,[4],did not show cytotoxicity
same,cell viability / cytotoxicity,[5],did not show cytotoxicity
same,viability of SH-SY5Y,[6]; up to 5000 ng/ml,did not affect the viabilities
same,viability of SK-N-BE(2),"[7]; up to 5000 ng/ml, 72 h",did not affect the viabilities
CC[C@@]1(O)C(=O)OCc2c1cc1n(c2=O)Cc2cc3c(CN(C)C)c(O)ccc3nc2-1 [topotecan],survival compared to control and PZ groups,"NB12 xenograft; daily oral gavage until day 83, P<0.005",significantly enhanced
same,tumor growth compared to control,NB12 xenograft,significantly reduced
same,"tumor growth rate, TP versus PZ group","SK-N-BE(2) xenograft; TP 1.0 mg/Kg vs PZ 150 mg/Kg, daily oral",No significant difference
same,survival compared to control,SK-N-BE(2) xenograft,significantly enhanced survival
same,trough concentration of topotecan,[1]; TP group,0.77 ng/mL
same,peak plasma concentration of topotecan,"[1]; TP group, single oral 1.0 mg/Kg topotecan",19.75 ng/mL
same,peak plasma concentration of topotecan,[1]; TP+PZ group,33.05 ng/mL
same,trough concentration of topotecan,[1]; TP+PZ group,2.79 ng/mL
same,"efficacy relative to PZ, TP+PZ and intermittent dosing",Rh30 xenograft; LDM topotecan 1.0 mg/kg daily oral,less effective
same,tumor growth rate,Rh30 xenograft,delayed the tumor growth rate
same,cell viability / cytotoxicity,[2]; 72 h treatment,dose-dependent reduction
same,cell viability / cytotoxicity,[4]; 72 h treatment,dose-dependent reduction
same,cell viability / cytotoxicity,[5]; 72 h treatment,dose-dependent reduction
same,IC50,"[6]; Homo sapiens, SH-SY5Y, topotecan alone",0.0053 µg/mL
same,IC50,[7]; topotecan alone,0.065 µg/mL
same,IC50,"[7]; topotecan with addition of 5000 ng/ml pazopanib, P=0.046",0.0351 µg/mL
same,"survival span, TP versus PZ treated group",[8]; P<0.05,higher
same,histology of organs: tumors in liver and kidney,[8]; at time of death or end point,macroscopically detectable tumors in liver and kidney
same,mean survival span,"[8]; daily oral gavage from 14 days after i.v. cell injection, TP 1.0 mg/Kg, TP+PZ plus 150 mg/Kg pazopanib",52.4 days
